Experimental data: patent US20130217721A1, “COMPOSITIONS AND METHODS FOR DETECTION AND TREATMENT OF B-RAF INHIBITOR-RESISTANT MELANOMAS” (The Regents of the University of California, priority 2010, published 2013)

B1: FLAG-tagged p61 BRAF(V600E/R509H) (enzyme, human, UniProt P15056 1-766, looked up)
chain: MAALSGGGGGGAEPGQALFNGDMEPEAGAGAGAAASSAADPAIPEEVWNIKQMIKLTQEHIEALLDKFGGEHNPPSIYLEAYEEYTSKLDALQQREQQLLESLGNGTDFSVSSSASMDTVTSSSSSSLSVLPSSLSVFQNPTDVARSNPKSPQKPIVRVFLPNKQRTVDLIRDQGFRGDGGSTTGLSATPPASLPGSLTNVKALQKSPGPQRERKSSSSSEDRNRMKTLGRRDSSDDWEIPDGQITVGQRIGSGSFGTVYKGKWHGDVAVKMLNVTAPTPQQLQAFKNEVGVLRKTHHVNILLFMGYSTKPQLAIVTQWCEGSSLYHHLHIIETKFEMIKLIDIARQTAQGMDYLHAKSIIHRDLKSNNIFLHEDLTVKIGDFGLATEKSRWSGSHQFEQLSGSILWMAPEVIRMQDKNPYSFQSDVYAFGIVLYELMTGQLPYSNINNRDQIIFMVGRGYLSPDLSKVRSNCPKAMKRLMAECLKKKRDERPLFPQILASIELLARSLPKIHRSASEPSLNRAGFQTEDFSLYACASPKTPIQAGGYGAFPVH
notes: domain: splice variant lacking exons 4-8 (554 amino acids); Expressed in 293H cells; immunoprecipitated with FLAG antibody; also called dimerization-deficient mutant; not shown: FLAG tag

How the values were obtained:
[1] = system: SKMEL-239 PLX4032-resistant clones C1-5; experiment: Proliferation assay of PLX4032-resistant clones; format: cell-based, human; conditions: all five resistant clones, albeit at slightly higher doses
Method: Cell proliferation and cell cycle analysis. All melanoma cell lines were generated by A. Houghton (MSKCC) or obtained from ATCC. 293H cells were obtained from Invitrogen. Cells were maintained in DMEM (293H and MEFs), or RPMI (all other cell lines) supplemented with 2 mM glutamine, antibiotics and 10% fetal bovine serum. We confirmed by DNA fingerprinting^20 that all PLX4032-resistant, SKMEL-239 clones were derived from the same patient, thus excluding the possibility of contamination (Table 6). For proliferation assays, cells were plated in 6 well plates and 24 hours later were treated with varying concentrations of inhibitors as indicated. IC50 values were calculated using Graph Pad Prism v.5. For cell cycle and apoptosis studies, cells were seeded in 6 well dishes the day prior to drug treatment. For analysis, both adherent and floating cells were harvested and stained with ethidium bromide as described previously^21.

[2] = system: Pt55 R short-term culture; experiment: Cell survival / proliferation assay (72 h); format: cell-based, human; conditions: for growth sensitivity to MEK inhibition: 72 h, in the presence or absence of PLX4032
Method: (§1) Cells were maintained in Dulbecco's modified Eagle medium (DMEM) with 10 or 20% fetal bovine serum and glutamine. shRNAs were sub-cloned into the lentiviral vector pLL3.7 and infections carried out with protamine sulphate. Stocks of PLX4032 (Plexxikon) and AZD6244 (commercially available) were made in DMSO. Cells were quantified using CellTiter-GLO Luminescence (Promega).
(§2) Cell proliferation experiments were performed in a 96-well format (five replicates), and baseline quantification performed at 24 h after cell seeding along with initiation of drug treatments (72 h). Stocks and dilutions of PLX4032 (Plexxikon), AZD6244 (Selleck Chemicals) and U0126 (Promega) were made in DMSO. siRNA pool (Dharmacon) transfections were carried out in 384-well format. TransIT transfection reagent (Mirus) was added to each well and incubated at 37° C. for 20 min. Subsequently, cells were reverse transfected, and the mixture was incubated for 51-61 h at 37° C. Cells were quantified using CellTiter 96 Aqueous One Solution (Promega) or CellTiter-GLO Luminescence (Promega) following the manufacturer's recommendations.

[3] = system: M229 R sub-lines (M229 R5); experiment: Cell survival / proliferation assay (72 h); format: cell-based, human; conditions: M229 R5, 72 h, PLX4032-resistant cells grown with PLX4032
Method: as §1, §2

[4] = system: Pt48 R short-term culture; experiment: Cell survival / proliferation assay (72 h); format: cell-based, human; conditions: for growth sensitivity to inhibitor: 72 h, PLX4032-resistant cells grown with PLX4032
Method: as §1, §2

[5] = system: M238 R sub-lines (M238 R1); experiment: Cell survival / proliferation assay (72 h); format: cell-based, human; conditions: M238 R1, 72 h, PLX4032-resistant cells grown with PLX4032
Method: as §1, §2

[6] = system: M249 R sub-line (M249 R4); experiment: Cell survival / proliferation assay (72 h); format: cell-based, human; conditions: for growth sensitivity to MEK inhibition: M249 R4, 72 h, in the presence or absence of PLX4032
Method: as §1, §2
(§3) Cell culture, infections and drug treatments. Cells were maintained in DMEM with 10 or 20% fetal bovine serum and glutamine. shRNAs for B-RAF and C-RAF were sub-cloned into the lentiviral vector pLL3.7; pBabe B-RAF (V600E) was purchase (plasmid 17544, Addgene); viral supernatants generated by co-transfection with three packaging plasm ids into HEK293T cells; and infections carried out with protamine sulfate. Stocks and dilutions of PLX4032 (Plexxikon, Berkeley, Calif.) and AZD6244 (commercially available) were made in DMSO. Cells were quantified using CellTiter-GLO Luminescence (Promega) or crystal violet staining followed by NIH Image J quantification.

M395 R = experiment: Cell survival assay (72 h); format: cell-based, human; conditions: M395 R (V600EB-RAF amplification-driven), 72 h
From the text: as §3

[7] = biological target: T1, V5-tagged p61 BRAF(V600E/R509H) (human, UniProt P15056 1-766); experiment: co-immunoprecipitation of FLAG- and V5-tagged forms from 293H cells
T1 construct: domain: splice variant lacking exons 4-8 (554 amino acids); Co-expressed with the FLAG-tagged form in 293H cells; also called dimerization mutant p61 BRAF(V600E/R509H); not shown: V5 tag

Molecule | growth sensitivity to MEK inhibition [2] | growth sensitivity to inhibitor [3] | growth sensitivity to inhibitor [4] | growth sensitivity to inhibitor [5] | growth sensitivity to MEK inhibition [6] | other results
O=C(NOC[C@H](O)CO)c1ccc(F)c(F)c1Nc1ccc(I)cc1F [PD0325901] | – | – | – | – | – | sensitivity to the MEK inhibitor [1]: retained sensitivity
N#CC(=C(/N)Sc1ccccc1N)/C(C#N)=C(\N)Sc1ccccc1N [U0126] | sensitive | highly resistant | highly resistant | highly resistant | sensitive | –
CCCS(=O)(=O)Nc1ccc(F)c(C(=O)c2c[nH]c3ncc(Cl)cc23)c1F [PLX4720] | – | – | – | – | – | growth resistance to B-RAF inhibitor [2]: resistance; growth resistance to B-RAF inhibitor [4]: resistance
Cn1cnc2c(F)c(Nc3ccc(Br)cc3Cl)c(C(=O)NOCCO)cc21 [AZD6244] | sensitive | highly resistant | highly resistant | highly resistant | sensitive | proliferation under MEKi treatment (M395 R): decreased proliferation; proliferation under MEKi treatment ([6]; M249 R4 (Q61KN-RAS-driven), 72 h): decreased proliferation
B1 | – | – | – | – | – | binding result [7]: no binding
